Measured values reported in ChEMBL document CHEMBL3638724, “Selective androgen receptor modulators” (2015).

The compounds below were run against T1, Androgen receptor (Homo sapiens, UniProt P10275) (assay: The assay was performed as specified by the manufacturer (Invitrogen, Madison, Wis.). Briefly, 1 ul of 10 mM compound was added to 500 ul of AR screening buffer in a 1.5 ml eppendorf tube to make a 2x10-5M stock. 10-fold serial dilutions of the test compounds were prepared ranging in concentration from 10^-5M to 10-12M. Each dilution was added in triplicate to a black 384-microtiter plate. The test compounds will be diluted 2-fold in the final reaction. 2xAR-Fluormone complex was prepared with 2 nM Flourmone AL Green and 30 nM AR. 25 ul of 2x complex was aliquoted to each reaction well, such that the final reaction volume was 50 ul per well. The plate was sealed with a foil cover and incubated in the dark at room temperature.).
T1 sequence (P10275 whole entry): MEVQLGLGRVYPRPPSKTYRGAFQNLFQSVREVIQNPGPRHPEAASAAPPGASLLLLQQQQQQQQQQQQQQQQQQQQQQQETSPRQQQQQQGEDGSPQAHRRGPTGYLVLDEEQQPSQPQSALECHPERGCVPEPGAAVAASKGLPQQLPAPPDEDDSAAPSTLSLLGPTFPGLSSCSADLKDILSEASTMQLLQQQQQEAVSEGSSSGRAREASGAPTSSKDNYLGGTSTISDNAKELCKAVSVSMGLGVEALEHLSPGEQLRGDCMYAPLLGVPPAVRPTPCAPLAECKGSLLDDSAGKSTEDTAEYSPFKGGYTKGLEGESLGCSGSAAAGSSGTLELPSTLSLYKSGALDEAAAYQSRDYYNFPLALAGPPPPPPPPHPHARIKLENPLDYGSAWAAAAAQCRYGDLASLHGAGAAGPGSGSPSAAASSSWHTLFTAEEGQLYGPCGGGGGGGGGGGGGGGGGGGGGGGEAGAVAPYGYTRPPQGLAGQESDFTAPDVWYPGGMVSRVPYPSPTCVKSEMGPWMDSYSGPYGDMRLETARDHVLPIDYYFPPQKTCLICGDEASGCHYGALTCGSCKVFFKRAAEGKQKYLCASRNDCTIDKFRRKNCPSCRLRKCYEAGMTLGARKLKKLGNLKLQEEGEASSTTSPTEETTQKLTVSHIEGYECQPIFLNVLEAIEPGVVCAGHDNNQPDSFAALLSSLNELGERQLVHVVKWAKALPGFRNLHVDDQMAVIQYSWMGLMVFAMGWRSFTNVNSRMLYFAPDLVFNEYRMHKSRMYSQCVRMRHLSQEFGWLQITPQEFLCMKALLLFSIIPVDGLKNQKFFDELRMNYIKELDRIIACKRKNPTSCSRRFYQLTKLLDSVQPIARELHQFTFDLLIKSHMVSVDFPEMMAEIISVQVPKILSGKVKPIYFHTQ

| Compound | IC50 [µM] |
| --- | --- |
| OC1(C(F)(F)F)CCCc2c1[nH]c1cc(Cl)c(Cl)cc21 (stereo unspecified) | 1.56 |
| OC1(C(F)(F)F)CCCc2c1[nH]c1ccc(Cl)c(Cl)c21 (stereo unspecified) | 40.2 |
| N#Cc1ccc2[nH]c3c(O)cccc3c2c1 | 4.6 |
| Oc1c(Br)ccc2c1[nH]c1cc(Cl)c(Cl)cc12 | 0.034 |
| O[C@@]1(C(F)(F)F)CCCc2c1[nH]c1cc(Cl)c(Cl)cc21 | > 1 |
| O[C@]1(C(F)(F)F)CCCc2c1[nH]c1c(Cl)cc(Cl)cc21 | 0.02 |
| OC1(C(F)(F)F)c2[nH]c3c(Cl)cc(F)cc3c2CCC1C(F)(F)F (stereo unspecified) | > 10 |
| OC1(C(F)(F)F)CCCc2c1[nH]c1c(Cl)cc(Cl)c(Cl)c21 (stereo unspecified) | > 10 |

Second part, the compound after the results:

| IC50 [µM] | Compound |
| --- | --- |
| 1.42 | Oc1cccc2c1[nH]c1ccc(Br)cc12 |
| 0.015 | Oc1cccc2c1[nH]c1ccc(Cl)c(Cl)c12 |
| 0.013 | O[C@]1(C(F)(F)F)CCCc2c1[nH]c1cc(Cl)c(Cl)cc21 |
